Laboratory results reported in US20250339400A1, “ARTESUNATE POWDERS, PHARMACEUTICAL COMPOSITIONS AND METHODS OF MANUFACTURE” (AMIVAS, INC., priority 2024, published 2025).

Experiments:
[1] = Bulk density, graduated cylinder; type: physicochemical
[2] = Tapped density, Caleva tapped density tester; type: physicochemical; conditions: after tapping
Protocol: The artesunate powders were then passed through a No. 18, 1.00 mm sieve and then added to a 10 mL Cole Parmer graduated cylinder. The graduated cylinder containing the artesunate powders was placed on a Caleva tapped density tester. The samples in the graduated cylinder were then subjected to the following sequence: 10 taps, 500 additional taps, 1250 additional taps, and 1250 additional taps. A volume was taken at the end of each set of taps, and when the volume was consistent for two sets in a row, the measurement was terminated. This final volume was then used to calculate the tapped density. Two replicate measurements were taken, and an average value was calculated.

[3] = Angle of repose, USP <1174>; type: physicochemical
Protocol: Angle of repose analyses were performed on artesunate powders based upon USP <1174> and under controlled relative humidity conditions. Polytetrafluoroethylene (PTFE) funnels with 8, 10 and 12 mm openings (i.e., Funnel 1, Funnel 2 and Funnel 3, respectively) were used in conjunction with a stainless steel receiving cylinder (Ø=30 mm). Powder samples were placed in the funnel while the funnel opening was closed with a glass slide. Once all the sample powder was loaded in the funnel, the glass slide was removed to allow powder to land on the cylinder below. The top and side of the funnel were tapped to enable the sample powder to drop down. The funnel height was maintained approximately 2-4 cm from the top of the powder pile to minimize the impact of falling powder on the tip of the cone. After the powder cone was built, height of the material forming the cone (h) and the radius (r) of the base were measured by a metal ruler. The angle of repose (θ) was calculated as follows: tan (θ)=h/r. Results were only considered valid when a symmetrical cone of powder was formed. Triplicate tests were attempted for each size of the funnels with the same amount of material being used.

[4] = Dynamic Vapor Sorption (DVS) moisture absorbance; type: physicochemical; conditions: 25 °C
Protocol: The instruments were calibrated with standard weights and a sodium bromide standard for humidity. One sample was equilibrated 50% RH for at least 5 days prior to analysis, while the other sample was equilibrated to 20% RH for at least 5 days prior to analysis. Approximately 10 to 20 mg of the powder samples were loaded into metal-coated quartz pans for analysis. The samples were analyzed at 25° C. in 10% RH steps from 5 to 95% RH (adsorption cycle) and from 95 to 5% RH (desorption cycle). The movement from one step to the next occurred either after satisfying the equilibrium criterion of 0.01% weight change in 30 minutes or, if the equilibrium criterion was not met, after 90 minutes. The percent weight change values were calculated using Microsoft Excel®2016. The results of this example are provided in Tables 6 and 7 and depicted in FIG. 1 (Sample Equilibrated to 20% RH) and FIG. 2 (Sample Equilibrated to 50% RH).

[5] = Static charge, Newtry static meter; type: physicochemical
Protocol: Static charge measurements were performed using a Newtry static meter. The powders were accumulated onto a piece of weigh paper and the surface gently leveled. The static meter was held approximately 25 millimeters from the surface of the material to obtain a reading. Three replicate measurements were taken, and an average was calculated.

[6] = SEM images of caking / agglomeration; type: physicochemical
Protocol: SEM images were collected using a Phenom XL Desktop SEM equipped with a CeB6 electron source (see FIG. 6). Phenom User Interface version 1.4 was used to acquire and save the images. Detailed image parameters are recorded in the footer of each image. Powder sample preparation for proper SEM results is known to those skilled in the art, and mainly relies on a proper monolayer of particles. These can be prepared with: the flick method, wherein a cotton swab is used to disperse particles onto a sample support by the “flick of a finger”; drop casting, where liquid solvents transfer particles onto a sample stub; or the dish method, where particles are spread over the area of a petri dish or similar flat surface using a spatula. A Nebula Particle Dispenser may also be used to prepare a uniform layer of powder. Although it is desirable to avoid agglomeration, the example as described herein sought to determine when agglomeration occurs at particular humidity levels. The samples tested herein were prepared with the flick method.

[7] = Tapped density, Caleva tapped density tester; type: physicochemical; conditions: 35% RH exposure ~24 h; after tapping
[8] = cited from earlier work
[9] = cited from earlier work; remark: listed apart in the source
[10] = 10% RH exposure, at least five days
[11] = 20% RH exposure, at least five days
[12] = 30% RH exposure, at least five days
[13] = 40% RH exposure, at least five days
[14] = 50% RH exposure, at least five days

C[C@H]1[C@H](OC(=O)CCC(=O)O)O[C@@H]2O[C@@]3(C)CC[C@H]4[C@H](C)CC[C@@H]1[C@@]24OO3 [artesunate powder, 4-oxo-4-[[(1R,4S,5R,8S,9R,10S,12R,13R)-1,5,9-trimethyl-11,14,15,16-tetraoxatetracyclo[10.3.1.0^4,13.0^8,13]hexadecan-10-yl]oxy]butanoic acid]
Average Bulk Density ([1]; 20% RH exposure ~24 h): 0.203 g/mL
Bulk Density 1 ([1]; 20% RH exposure ~24 h): 0.193 g/mL
Bulk Density 2 ([1]; 20% RH exposure ~24 h): 0.231 g/mL
Average Bulk Density ([1]; 50% RH exposure ~24 h): 0.203 g/mL
Bulk Density 1 ([1]; 50% RH exposure ~24 h): 0.200 g/mL
Bulk Density 2 ([1]; 50% RH exposure ~24 h): 0.208 g/mL
Average Bulk Density (Tapped Densities of Powder Samples) ([2]; 20% RH exposure ~24 h): 0.303 g/mL
Bulk Density 1 (Tapped Densities of Powder Samples) ([2]; 20% RH exposure ~24 h): 0.307 g/mL
Bulk Density 2 (Tapped Densities of Powder Samples) ([2]; 20% RH exposure ~24 h): 0.318 g/mL
Bulk Density 3 (Tapped Densities of Powder Samples) ([2]; 20% RH exposure ~24 h): 0.283 g/mL
Average Bulk Density (Tapped Densities of Powder Samples) ([2]; 35% RH exposure ~24 h): 0.318 g/mL
Bulk Density 1 (Tapped Densities of Powder Samples) ([2]; 35% RH exposure ~24 h): 0.317 g/mL
Bulk Density 2 (Tapped Densities of Powder Samples) ([2]; 35% RH exposure ~24 h): 0.300 g/mL
Average Bulk Density (Tapped Densities of Powder Samples) ([2]; 50% RH exposure ~24 h): 0.317 g/mL
Bulk Density 1 (Tapped Densities of Powder Samples) ([2]; 50% RH exposure ~24 h): 0.320 g/mL
Bulk Density 2 (Tapped Densities of Powder Samples) ([2]; 50% RH exposure ~24 h): 0.312 g/mL
Bulk Density 3 (Tapped Densities of Powder Samples) ([2]; 50% RH exposure ~24 h): 0.319 g/mL
angle of repose ([3]; 35% RH, Average of Funnels 1-3): 39 degrees
angle of repose ([3]; 35% RH, Funnel 1 (8 mm opening)): 35 degrees
angle of repose ([3]; 35% RH, Funnel 2 (10 mm opening)): 38 degrees
angle of repose ([3]; 35% RH, Funnel 3 (12 mm opening)): 45 degrees
flow properties based on USP 1174 ([3]; 35% relative humidity): acceptable
angle of repose ([3]; 50% RH, Average of Funnels 1-3): 43 degrees
angle of repose ([3]; 50% RH, Funnel 1 (8 mm opening)): 42 degrees
angle of repose ([3]; 50% RH, Funnel 2 (10 mm opening)): 45 degrees
angle of repose ([3]; 50% RH, Funnel 3 (12 mm opening)): 42 degrees
flow property based on USP 1174 ([3]; 50% relative humidity): passable but may hang up
% change (DVS) ([4]; sample equilibrated to 20% RH, RH step 95, total 360 min): 100.08%
% change (DVS) ([4]; sample equilibrated to 20% RH, adsorption, RH step 5, total 0 min): 100.00%
% change (DVS) ([4]; sample equilibrated to 20% RH, adsorption, RH step 5, total 60 min): 100.00%
% change (DVS) ([4]; sample equilibrated to 20% RH, adsorption, RH step 15, total 90 min): 100.02%
% change (DVS) ([4]; sample equilibrated to 20% RH, adsorption, RH step 25, total 120 min): 100.02%
% change (DVS) ([4]; sample equilibrated to 20% RH, adsorption, RH step 35, total 150 min): 100.03%
% change (DVS) ([4]; sample equilibrated to 20% RH, adsorption, RH step 45, total 180 min): 100.03%
% change (DVS) ([4]; sample equilibrated to 20% RH, adsorption, RH step 55, total 210 min): 100.03%
% change (DVS) ([4]; sample equilibrated to 20% RH, adsorption, RH step 65, total 240 min): 100.04%
% change (DVS) ([4]; sample equilibrated to 20% RH, adsorption, RH step 75, total 270 min): 100.05%
% change (DVS) ([4]; sample equilibrated to 20% RH, adsorption, RH step 85, total 300 min): 100.06%
% change (DVS) ([4]; sample equilibrated to 20% RH, desorption, RH step 5, total 630 min): 100.04%
% change (DVS) ([4]; sample equilibrated to 20% RH, desorption, RH step 15, total 600 min): 100.04%
% change (DVS) ([4]; sample equilibrated to 20% RH, desorption, RH step 25, total 570 min): 100.04%
% change (DVS) ([4]; sample equilibrated to 20% RH, desorption, RH step 35, total 540 min): 100.04%
% change (DVS) ([4]; sample equilibrated to 20% RH, desorption, RH step 45, total 510 min): 100.05%
% change (DVS) ([4]; sample equilibrated to 20% RH, desorption, RH step 55, total 480 min): 100.06%
% change (DVS) ([4]; sample equilibrated to 20% RH, desorption, RH step 65, total 450 min): 100.06%
% change (DVS) ([4]; sample equilibrated to 20% RH, desorption, RH step 75, total 420 min): 100.06%
% change (DVS) ([4]; sample equilibrated to 20% RH, desorption, RH step 85, total 390 min): 100.07%
% change (DVS) ([4]; sample equilibrated to 50% RH, RH step 95, total 360 min): 100.08%
% change (DVS) ([4]; sample equilibrated to 50% RH, adsorption, RH step 5, total 0 min): 100.00%
% change (DVS) ([4]; sample equilibrated to 50% RH, adsorption, RH step 5, total 30 min): 100.01%
% change (DVS) ([4]; sample equilibrated to 50% RH, adsorption, RH step 15, total 60 min): 100.01%
% change (DVS) ([4]; sample equilibrated to 50% RH, adsorption, RH step 25, total 90 min): 100.01%
% change (DVS) ([4]; sample equilibrated to 50% RH, adsorption, RH step 35, total 120 min): 100.01%
% change (DVS) ([4]; sample equilibrated to 50% RH, adsorption, RH step 45, total 150 min): 100.02%
% change (DVS) ([4]; sample equilibrated to 50% RH, adsorption, RH step 55, total 180 min): 100.02%
% change (DVS) ([4]; sample equilibrated to 50% RH, adsorption, RH step 65, total 240 min): 100.03%
% change (DVS) ([4]; sample equilibrated to 50% RH, adsorption, RH step 75, total 270 min): 100.04%
% change (DVS) ([4]; sample equilibrated to 50% RH, adsorption, RH step 85, total 300 min): 100.05%
% change (DVS) ([4]; sample equilibrated to 50% RH, desorption, RH step 5, total 660 min): 100.02%
% change (DVS) ([4]; sample equilibrated to 50% RH, desorption, RH step 15, total 630 min): 100.02%
% change (DVS) ([4]; sample equilibrated to 50% RH, desorption, RH step 25, total 600 min): 100.02%
% change (DVS) ([4]; sample equilibrated to 50% RH, desorption, RH step 35, total 570 min): 100.02%
% change (DVS) ([4]; sample equilibrated to 50% RH, desorption, RH step 45, total 540 min): 100.03%
% change (DVS) ([4]; sample equilibrated to 50% RH, desorption, RH step 55, total 510 min): 100.04%
% change (DVS) ([4]; sample equilibrated to 50% RH, desorption, RH step 65, total 480 min): 100.05%
% change (DVS) ([4]; sample equilibrated to 50% RH, desorption, RH step 75, total 450 min): 100.05%
% change (DVS) ([4]; sample equilibrated to 50% RH, desorption, RH step 85, total 420 min): 100.06%
Average Static Reading [5, 10]: 0.36 kV
Static Reading 1 [5, 10]: 0.40 kV
Static Reading 2 [5, 10]: 0.38 kV
Static Reading 3 [5, 10]: 0.30 kV
Average Static Reading ([5]; 11% RH): 0.36 kV
Average Static Reading [5, 11]: 0.13 kV
Static Reading 1 [5, 11]: 0.12 kV
Static Reading 2 [5, 11]: 0.13 kV
Static Reading 3 [5, 11]: 0.13 kV
Average Static Reading ([5]; 22% RH): 0.13 kV
Average Static Reading [5, 12]: −0.04 kV
Static Reading 1 [5, 12]: −0.04 kV
Static Reading 2 [5, 12]: −0.04 kV
Static Reading 3 [5, 12]: −0.04 kV
Average Static Reading [5, 13]: 0.01 kV
Static Reading 1 [5, 13]: 0.02 kV
Static Reading 2 [5, 13]: 0.01 kV
Static Reading 3 [5, 13]: 0.00 kV
Average Static Reading [5, 14]: −0.05 kV
Static Reading 1 [5, 14]: −0.05 kV
Static Reading 2 [5, 14]: −0.05 kV
Static Reading 3 [5, 14]: −0.05 kV
caking / agglomeration in SEM images ([6]; 20% RH (FIG. 6)): strong caking, or agglomeration
caking in SEM images ([6]; 35% RH (FIG. 7)): less caking
agglomeration / caking in SEM images ([6]; 50% RH (FIG. 8)): significant agglomeration, or caking
Bulk Density 3 (Tapped Densities of Powder Samples) [7]: 0.337 g/mL
solubility in organic solvents ([8]; organic solvents, such as acetone and methanol): soluble
solubility in water ([8]; water): slightly soluble
stability under basic and acidic conditions ([9]; basic and acidic conditions): unstable
degradation by moisture and heat ([9]; moisture and heat (Agnihotri J. et al, 2013)): susceptible to degradation
